According to patent publication US20140364454A1, “METAL-CHELATING COMPOUNDS HAVING AT LEAST ONE POLYAMINO CHAIN” (UNIVERSITE DE RENNES I, priority 2011, published 2014):
Read-outs that look alike come from different tables or passages of the source.

Assays:
[1] = Calcein test: shift of iron(III) complexated with calcein; format: physicochemical; details: pH 7.4
Experimental: The Quilamines HQ1-34, HQ1-344, HQ1-343, HQ1-33, HQ1-333, HQ1-44, HQ1-43, HQ1-444, HQ1-443 according to the invention were synthesized and tested. For each Quilamine, its capacity to shift iron (III) complexated with calcein was tested. Calcein is a fluorescent molecule which has a pFe3+ value of 20.3 with pH 7.4 close to the value measured for ligands of low molecular weight present in human or animal cells and complexating the labile iron pool, such as citrate which has a pFe^3+ value of 19.3 with pH of 7.4 (LIP). The fluorescence of calcein is detected on a microplate, in a concentration of 0.1 micromole per liter, in solution in a HEPES buffer (4-(2-hydroxyethyl)-1-piperazine ethane sulfonic acid) with pH 7.4, in a Fusion (Packard) type a microplate fluorescence reader, under excitation at 450 nanometers and analysis of the fluorescence emission at 515 nanometers. The fluorescence of calcein is extinguished in the presence of iron(III) in the form of hydrochloride (chloride) with a concentration of 1 micromole per liter. The addition of Quilamine in different concentrations ranging from 0.01 to 40 micromoles per liter prompts the shifting of iron(III) complexated with calcein towards Quilamine, resulting in a restoration of the fluorescence of the calcein. The dose-effect curves expressing the percentage of restoration of fluorescence of calcein (relative to the fluorescence of the free molecule in the absence of iron), for each Quilamine concentration, makes it possible to deduce the Quilamine concentration prompting the 50% shift of Fe(III) from calcein and the restoration of its associated fluorescence (CE50). These concentration values CE50 are inversely proportional to the chelating capacity of the chelators and the aptitude to mobilize iron from the LIP of the organism.
Comparatively, measurements were made, under the same conditions, of the efficacy in shifting iron(III) complexated with calcein of the two prior-art chelators, 8-hydroxyquinoline and O-trensox, the latter being currently considered to be the chelator having the greatest affinity for iron.

[2] = tested on: wild cell line (CHO) of hamster ovarian cells; assay: Anti-proliferative effect on CHO cells, counting of cell nuclei (Hoechst 33342); format: cell-based; details: 72 h treatment, no exogenous iron; read-out: IC50 CHO
Experimental: The in vitro efficacy of different Quilamines was tested on a wild cell line (CHO) of hamster ovarian cells having PTS and a mutant cell line CHO-MG without PTS. The two cell types CHO and CHO-MG were treated, 24 hours after being seeded in 96-well microplates, by concentrations of different Quilamines ranging from 0.1 to 400 micromoles per liter. The cytostatic (anti-proliferative) effects and cytotoxic effects of Quilamine after 72 hours' treatment of the cells were assessed respectively by counting cell nuclei after DNA marking by the Hoechst 33342 fluorescent intercalant dye and by analysis of membrane damage detected by the dosing of the lactate dehydrogenase activity (LHD) in the supernatants.
The IC50 inhibitor concentration corresponding to the concentration in Quilamines enables the inhibition at 50% of the cell proliferation was deduced from the dose-effect curves of numeration of the nuclei of the living cells on the CHO and CHO-MG cell lines. […] The lower the value of IC50, the greater the efficiency of the anti-proliferative effect of the tested chelators.
A comparison was made of the cytostatic or anti-proliferative action and the cytotoxic action for 72 h of treatment by Quilamine HQ1-44 and 8-hydroxyquinoline and ICL670, on the CHO cell lines in the presence and without the presence of exogenous iron, in the form of Fe(III) citrate in a concentration of 20 micromoles per liter. The results obtained are shown in FIG. 4, FIG. 4A relating to the results on cell viability and FIG. 4B relating to the results on cell toxicity.

[3] = tested on: mutant cell line CHO-MG without PTS; assay: Anti-proliferative effect on CHO-MG cells without PTS, counting of cell nuclei; format: cell-based, hamster; details: for IC50: 72 h treatment; for Ratio IC50 (CHO-MG/CHO): selectivity of recognition by the PTS
Excerpt: The IC50 inhibitor concentration corresponding to the concentration in Quilamines enables the inhibition at 50% of the cell proliferation was deduced from the dose-effect curves of numeration of the nuclei of the living cells on the CHO and CHO-MG cell lines. These dose-effect curves are sometimes bi-phase curves as in the case of Quilamine HQ1-44 which has an anti-proliferative constituent (without concomitant release of LDH in supernatant) in the range of concentrations of 0.4 to 3 micromoles per liter and a second cytotoxic constituent accompanied by membrane toxicity expressed by the release of LDH for concentrations of over […]. The lower the value of IC50, the greater the efficiency of the anti-proliferative effect of the tested chelators.
Furthermore, the ratio of the IC50 inhibitor concentrations found for the CHO-MG and the CHO cell lines (Ratio IC50 (CHO-MG/CHO)) was computed for several Quilamines according to the invention. This ratio makes it possible to estimate the selectivity of recognition of the different chelators by the PTS: the higher the ratio, the more clearly is the chelator recognized by the PTS. When this ratio is close to 1, the tested chelator is not recognized or is little recognized by the PTS.

[4] = tested on: HepG2 cells; assay: Anti-proliferative effect on HepG2 cells (nuclei count or SDH activity); format: cell-based, human; details: 72 h; for IC50: HepG2, absence of exogenous iron, read-out: IC50 associated with the cytostatic effect; for % of HepG2 cells concerned by the anti-proliferative effect: absence of exogenous iron
Excerpt: The majority of the Quilamines, like ICL670, show biphase dose-effect curves in the absence of exogenous iron, with an anti-proliferative constituent for concentration values of 1 to 10 micromoles per liter and a cytotoxic constituent associated with a release of LDH for concentration values of over 10 micromoles per liter. The percentage of HepG2 cells concerned by the anti-proliferative effect and the values of IC50 associated with this cytostatic effect in the absence of exogenous iron were listed in the table 4 below.
The implication of PTS in the cytostatic and cytotoxic action of Quilamines was analyzed in proliferating HepG2 hepatocyte tumor cells after activation of PTS or competitive inhibition of PTS by spermidine, a polyamine naturally present in the organism and most efficaciously captured by the PTS. The conditions of treatment by Quilamines are identical to those described in paragraph III-1.
Inhibiting ornithine decarboxylase (ODC), the key enzyme in the biosynthesis of polyamines, causes a depletion of intra-cell polyamines and an activation of PTS which enables the deficiency to be met. This activation of PTS is done by means of the ODC inhibitor, alpha-difluoromethyl ornithine (DFMO).
The competitive inhibition of PTS by spermidine is prompted by the co-treatment of the cells by the Quilamines in the presence of spermidine, in a concentration of 50 micromoles per liter.

[5] = tested on: Caco-2 cells; assay: Cell viability of proliferating Caco-2 cells (number of nuclei); format: cell-based, human; details: for IC50: no exogenous iron; for Constituent 1 (1-10 μM) % cell / Constituent 2 (10-100 μM) % cell: Caco-2 J4, no exogenous iron
Experimental: (§1) The action of Quilamines on the cell viability was analyzed on enterocyte cells of the Caco-2 tumor cell line derived from human colon carcinoma and compared with the action of ICL670 in the presence or absence of exogenous iron, after activation (DFMO) or competitive inhibition by spermidine, of the PTS. The operating conditions used are identical to those used for CHO/CHO-MG and HepG2 cells.
The results for the measurement of the anti-proliferative effect of Quilamines, and of ICL670 on the proliferating cells (cytostatic constituent) when there is no exogenous iron have been listed in the table 4 below.

[6] = tested on: Caco-2 cells; assay: LDH release of Caco-2 cells; format: cell-based, human; details: for % LDH/control 10 μM: Caco-2 J4, 10 μM; for % LDH/control 100 μM: Caco-2 J4, 100 μM
Experimental: as §1
As in the case of the other cell lines in proliferative phase presented here above, the dose-effect curves of the action of the Quilamines on the number of viable cells (number of nuclei) are biphase curves with a cytostatic constituent for concentration values of below 30 micromoles per liter and a cytotoxic constituent with release of LDH for concentration values above 30 micromoles per liter. Only this second cytotoxic constituent is observed when the cells of the Caco-2 cell line are treated after confluence (stopping of the proliferation).

[7] = Potentiometry: stability constants and pFe3+ of the iron complex; format: physicochemical; details: pH 7.4
Experimental: The complexation affinity of Quilamine with the metal ion in the organism reflects the chelating capacity or chelating power of Quilamine. This affinity can be assessed by measuring the value of pW corresponding to −log of the concentration in free metal ion W, i.e. non-complexated by the Quilamine for a ratio of respective concentrations of Quilamine (10 micromoles per liter) and metal ion (1 micromole per liter) equal to 10, at 25° C. and pH 7.4. The higher the value of pW, the greater the affinity of Quilamine with metal ion. The affinity of Quilamine with iron in its ferric form (Fe(III)) and its ferrous form (Fe(II)) is measured respectively by pFe^3+ and pFe^2+ at physiological pH (pH=7.4), at 25° C.
Potentiometry measurements were made in thermostated titration cells at 25±0.1° C., using a Metrohm 702 SM Titrino titrator connected to a Metrohm 6.0233.100. The ligand solution is prepared in a concentration of ˜1.5×10^−3 moles per liter, the solution of Fe^3+ is made from FeCl3 and titrated by complexation with a standard solution of EDTA (ethylenediaminetetracetic acid). The sample for the measurement contained approximately 0.03 millimoles per liter of ligand in a volume of 30 ml where the ionic strength is maintained at 0.1 mole per liter in using KNO3 as a support electrolyte. During the titrations, Fe^3+ is added to 0.45 or 0.9 equivalents of ligand. Each titration consists of 150-200 equilibrium points with pH varying from 2.0 to 11.5, and is repeated at least twice. The thermodynamic constants are computed with the software […] and the speciation diagram of the species is done by the Hyss program.

[8] = Caco-2 J4, cytostatic constituent, read-out: Constituent 1 (1-10 μM) IC50
[9] = Caco-2 J4, cytotoxic constituent, read-out: Constituent 2 (10-100 μM) IC50

chelating capacity of HQ1-3 type compared with HQ1-4 type Quilamines [1]	IC50 [4] [µM]	IC50 [5, 8] [µM]	% LDH/control 10 μM [6] [%]	% LDH/control 100 μM [6] [%]	IC50 ([4]; Homo sapiens) [µM]	IC50 ([5]; Homo sapiens, Caco-2 J4, cytostatic constituent, read-out: Constituent 1 (1-10 μM) IC50) [µM]	pFe3+ [7]	Compound	IC50 [2] [µM]	IC50 [3] [µM]	Ratio IC50 (CHO-MG/CHO) [3]	% of HepG2 cells concerned by the anti-proliferative effect [4] [%]	IC50 [5, 9] [µM]	Constituent 1 (1-10 μM) % cell [5] [%]	Constituent 2 (10-100 μM) % cell [5] [%]	IC50 ([5]; Homo sapiens, Caco-2 J4, cytotoxic constituent, read-out: Constituent 2 (10-100 μM) IC50) [µM]
better chelating capacity	1.5	0.8	118	261	–	–	–	NCCCNCCCNCc1ccc2cccc(O)c2n1 [HQ1-33]	5.7	118	21	10	37	40	60	–
better chelating capacity	1.75	1	100	229	–	–	–	NCCCCNCCCNCc1ccc2cccc(O)c2n1 [HQ1-34]	–	–	–	5	45	20	80	–
–	1.75	1	93	240	–	–	–	NCCCNCCCCNCc1ccc2cccc(O)c2n1 [HQ1-43]	–	–	–	10	30	7	93	–
better chelating capacity	1	3	112	169	–	–	–	NCCCNCCCNCCCNCc1ccc2cccc(O)c2n1 [HQ1-333]	15.1	277	18	12.5	60	20	80	–
better chelating capacity	2.15	2	89	255	–	–	–	NCCCNCCCCNCCCNCc1ccc2cccc(O)c2n1 [HQ1-343]	–	–	–	12.5	40	30	70	–
better chelating capacity	–	–	95	120	1.75	3	–	NCCCCNCCCCNCCCNCc1ccc2cccc(O)c2n1 [HQ1-344]	–	–	–	10	–	22	78	75
–	2.25	1	88	189	–	–	–	NCCCNCCCCNCCCCNCc1ccc2cccc(O)c2n1 [HQ1-443]	20.2	258	13	17.5	35	5	95	–
–	4.75	2	99	118	–	–	–	NCCCCNCCCCNCCCCNCc1ccc2cccc(O)c2n1 [HQ1-444]	6.3	240	38	10	75	60	40	–
–	–	–	–	–	–	–	29.5	O=C(NCCN(CCNC(=O)c1cc(S(=O)(=O)O)c2cccnc2c1O)CCNC(=O)c1cc(S(=O)(=O)O)c2cccnc2c1O)c1cc(S(=O)(=O)O)c2cccnc2c1O [o-Trensox, reference compound]	–	–	–	–	–	–	–	–
